Structures can show the parent of a compound that is named as a salt.
Assays:
[1] = target: T1, human plasmatic butyrylcholinesterase (hBChE) (Homo sapiens, UniProt P06276); assay: biochemical
T1 construct: gene BCHE

hGluN1/hGluN2B [2] = target: T2, hGluN1/hGluN2B (Homo sapiens, UniProt Q05586+Q13224); assay: cell-based; design: gene GRIN1; cDNA vectors for human GluN1-1a and GluN2B co-transfected with GFP in HEK293 cells; diheteromeric receptor; whole-cell voltage-clamp electrophysiology, inhibition of steady-state L-glutamate-induced currents at -60 mV; details: HEK293; -60 mV, 1 mM L-glutamate
T2 sequence (Q13224 27-1484, other chains not shown): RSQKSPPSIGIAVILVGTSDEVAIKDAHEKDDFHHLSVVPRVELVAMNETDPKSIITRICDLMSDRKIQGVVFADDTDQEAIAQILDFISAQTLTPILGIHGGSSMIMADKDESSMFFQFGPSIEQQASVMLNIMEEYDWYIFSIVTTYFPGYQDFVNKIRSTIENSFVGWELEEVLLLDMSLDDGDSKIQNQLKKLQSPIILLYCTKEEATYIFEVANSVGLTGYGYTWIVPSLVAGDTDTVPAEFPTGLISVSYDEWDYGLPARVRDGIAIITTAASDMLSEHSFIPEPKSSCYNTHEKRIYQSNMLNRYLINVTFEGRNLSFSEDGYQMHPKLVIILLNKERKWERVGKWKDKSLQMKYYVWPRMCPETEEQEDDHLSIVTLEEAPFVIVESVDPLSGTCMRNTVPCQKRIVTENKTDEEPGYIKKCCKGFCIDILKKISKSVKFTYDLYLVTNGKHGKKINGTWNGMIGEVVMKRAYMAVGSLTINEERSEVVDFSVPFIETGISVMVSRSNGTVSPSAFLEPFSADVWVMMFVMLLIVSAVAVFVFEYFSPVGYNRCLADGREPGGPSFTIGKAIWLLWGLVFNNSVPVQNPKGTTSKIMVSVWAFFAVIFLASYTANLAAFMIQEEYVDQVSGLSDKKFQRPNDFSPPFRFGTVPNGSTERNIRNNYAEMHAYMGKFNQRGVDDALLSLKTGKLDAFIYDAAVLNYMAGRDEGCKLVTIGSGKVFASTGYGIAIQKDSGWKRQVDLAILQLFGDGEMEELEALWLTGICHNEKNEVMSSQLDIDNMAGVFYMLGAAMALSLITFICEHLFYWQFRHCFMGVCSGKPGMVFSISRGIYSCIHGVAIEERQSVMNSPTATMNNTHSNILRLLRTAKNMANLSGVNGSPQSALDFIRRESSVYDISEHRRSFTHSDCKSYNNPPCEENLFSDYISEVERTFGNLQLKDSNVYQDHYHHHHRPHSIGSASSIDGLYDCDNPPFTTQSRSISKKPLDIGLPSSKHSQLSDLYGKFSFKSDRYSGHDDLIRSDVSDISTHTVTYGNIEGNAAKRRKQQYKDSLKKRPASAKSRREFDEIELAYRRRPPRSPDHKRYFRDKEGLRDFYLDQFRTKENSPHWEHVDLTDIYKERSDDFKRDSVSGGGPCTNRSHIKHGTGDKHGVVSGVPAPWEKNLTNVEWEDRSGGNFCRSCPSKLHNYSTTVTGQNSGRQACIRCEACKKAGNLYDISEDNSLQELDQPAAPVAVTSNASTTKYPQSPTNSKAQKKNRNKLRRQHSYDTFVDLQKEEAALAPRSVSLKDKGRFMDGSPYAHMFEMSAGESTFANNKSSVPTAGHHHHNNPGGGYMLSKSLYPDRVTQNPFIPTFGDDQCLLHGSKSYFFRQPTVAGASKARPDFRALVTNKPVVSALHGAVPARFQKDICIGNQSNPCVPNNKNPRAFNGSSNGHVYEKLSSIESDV
Procedure: (§1) First, we determined the relative inhibition of all novel compounds on the two major diheteromeric NMDA receptor subtypes in the adult cortex – GluN1/GluN2A and GluN1/GluN2B [1] – using a clinically relevant concentration (3 µM). We kept the measured cells at a membrane potential of -60 mV, and the values of relative inhibition by the compounds were calculated from the L-glutamate-induced responses of human versions of the GluN1/GluN2A (hGluN1/hGluN2A) and GluN1/GluN2B (hGluN1/hGluN2B) receptors obtained under steady-state conditions. […] Specifically, in the case of hGluN1/hGluN2A receptors, we obtained relative inhibition values ranging from ∼5% for compound 3h to ∼93% for compound 6f, while for hGluN1/hGluN2B receptors, we measured values ranging from ∼3% for compound 3i to ∼92% for compound 6g at a fixed dose of 3 µM of the tested compound. […] It can be assumed that the positive and negative effects of a given inhibitor of the NMDA receptor in vivo are caused by their affinity and the kinetics of inhibition, in addition to their availability in the CNS. […] In further experiments, we generated concentration-response curves for 6f (0.03-10 µM) and 3l (0.3-300 µM) on both hGluN1/hGluN2A and hGluN1/hGluN2B receptors at negative (-60 mV) and positive (40 mV) membrane potentials (Fig. 2A-D). […] (A, C) Representative whole-cell voltage-clamp recordings of HEK293 cells expressing hGluN1/hGluN2A or hGluN1/hGluN2B receptors showing the inhibitory effects of compound 6f (0.03 - 300 µM) and compound 3l (0.3 - 300 µM) at membrane potentials of 40 mV (A) and -60 mV (C). Glu = 1 mM L-glutamate. (B, D) Normalized inhibitory concentration-response curves for compound 6f and compound 3l for hGluN1/hGluN2A and hGluN1/hGluN2B receptors at membrane potentials of 40 mV (B) and -60 mV (D). Concentration-response curves were fitted using Equation 1; the resulting IC50 values, Hill coefficients, and the numbers of cells measured for each membrane potential are shown in Table 3.

[3] = target: T3, human recombinant AChE (hAChE) (Homo sapiens, UniProt P22303); assay: modified Ellman's method; format: biochemical
T3 construct: recombinant enzyme purchased from Merck
T3 sequence (P22303 32-614): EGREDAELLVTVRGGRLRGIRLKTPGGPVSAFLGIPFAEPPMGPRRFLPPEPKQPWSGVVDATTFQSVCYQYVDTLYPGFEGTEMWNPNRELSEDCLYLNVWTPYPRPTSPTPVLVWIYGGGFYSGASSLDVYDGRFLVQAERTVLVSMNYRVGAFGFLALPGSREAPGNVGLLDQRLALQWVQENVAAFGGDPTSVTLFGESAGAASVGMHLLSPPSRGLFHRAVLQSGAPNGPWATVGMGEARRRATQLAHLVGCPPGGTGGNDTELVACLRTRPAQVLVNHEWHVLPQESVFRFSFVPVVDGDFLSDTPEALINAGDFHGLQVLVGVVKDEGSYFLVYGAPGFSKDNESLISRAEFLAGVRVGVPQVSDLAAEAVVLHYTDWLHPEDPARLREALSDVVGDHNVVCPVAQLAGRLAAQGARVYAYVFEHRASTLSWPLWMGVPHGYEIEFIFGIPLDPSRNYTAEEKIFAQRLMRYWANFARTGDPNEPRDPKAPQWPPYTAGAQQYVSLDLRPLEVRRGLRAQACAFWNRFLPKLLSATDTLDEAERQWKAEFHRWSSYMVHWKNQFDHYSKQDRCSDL

hGluN1/hGluN2A [4] = target: T4, hGluN1/hGluN2A (Homo sapiens, UniProt Q05586+Q12879); design: gene GRIN1; details: -60 mV; 1 mM L-glutamate, 100 µM glycine; pH 7.3
T4 sequence (Q12879 23-1464, other chains not shown): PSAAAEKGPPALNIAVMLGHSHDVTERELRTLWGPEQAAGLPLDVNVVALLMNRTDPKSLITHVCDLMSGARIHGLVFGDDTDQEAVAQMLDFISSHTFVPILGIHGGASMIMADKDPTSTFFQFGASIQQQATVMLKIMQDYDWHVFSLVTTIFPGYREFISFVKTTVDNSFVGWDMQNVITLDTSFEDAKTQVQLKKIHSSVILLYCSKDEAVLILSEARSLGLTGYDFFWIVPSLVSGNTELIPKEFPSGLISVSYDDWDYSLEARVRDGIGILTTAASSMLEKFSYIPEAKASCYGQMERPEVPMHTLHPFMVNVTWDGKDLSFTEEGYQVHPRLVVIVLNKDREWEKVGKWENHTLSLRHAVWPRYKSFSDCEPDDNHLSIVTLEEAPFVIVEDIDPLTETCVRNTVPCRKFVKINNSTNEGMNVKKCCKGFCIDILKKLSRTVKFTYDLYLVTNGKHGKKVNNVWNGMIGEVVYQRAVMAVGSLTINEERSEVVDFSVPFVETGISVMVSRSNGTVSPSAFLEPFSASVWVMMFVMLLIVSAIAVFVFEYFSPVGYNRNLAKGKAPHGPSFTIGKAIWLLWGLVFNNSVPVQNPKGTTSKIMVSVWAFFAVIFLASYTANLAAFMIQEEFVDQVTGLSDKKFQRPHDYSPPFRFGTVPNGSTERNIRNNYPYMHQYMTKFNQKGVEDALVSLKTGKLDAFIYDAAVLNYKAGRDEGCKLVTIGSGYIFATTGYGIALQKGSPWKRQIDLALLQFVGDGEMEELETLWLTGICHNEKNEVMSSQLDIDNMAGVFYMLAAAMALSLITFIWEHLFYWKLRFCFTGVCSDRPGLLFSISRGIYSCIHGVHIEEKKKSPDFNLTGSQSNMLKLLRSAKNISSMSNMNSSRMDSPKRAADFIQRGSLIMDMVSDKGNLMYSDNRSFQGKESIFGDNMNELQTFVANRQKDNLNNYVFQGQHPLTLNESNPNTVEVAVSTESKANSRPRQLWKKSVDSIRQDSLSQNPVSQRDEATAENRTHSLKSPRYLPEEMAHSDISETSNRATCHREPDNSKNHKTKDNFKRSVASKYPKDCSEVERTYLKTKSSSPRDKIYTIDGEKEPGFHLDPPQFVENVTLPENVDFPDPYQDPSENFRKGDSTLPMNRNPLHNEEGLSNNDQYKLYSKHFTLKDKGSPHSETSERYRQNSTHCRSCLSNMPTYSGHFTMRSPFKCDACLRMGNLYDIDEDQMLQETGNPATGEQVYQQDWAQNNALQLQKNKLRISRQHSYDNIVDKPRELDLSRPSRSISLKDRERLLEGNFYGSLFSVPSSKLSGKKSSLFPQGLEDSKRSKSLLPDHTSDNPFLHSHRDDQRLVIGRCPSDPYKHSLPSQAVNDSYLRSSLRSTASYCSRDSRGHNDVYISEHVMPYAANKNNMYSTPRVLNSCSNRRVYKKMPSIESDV

hGluN1/hGluN2A [5] = target: T4, hGluN1/hGluN2A; assay: cell-based; design: gene GRIN1; cDNA vectors for human GluN1-1a and GluN2A co-transfected with GFP in HEK293 cells; diheteromeric receptor; whole-cell voltage-clamp electrophysiology, inhibition of steady-state L-glutamate-induced currents at -60 mV; details: HEK293; -60 mV, 1 mM L-glutamate
Procedure: as §1

hGluN1/hGluN2B [6] = target: T2, hGluN1/hGluN2B; design: gene GRIN1; details: -60 mV; 1 mM L-glutamate, 100 µM glycine; pH 7.3

T1 sequence (P06276 29-602): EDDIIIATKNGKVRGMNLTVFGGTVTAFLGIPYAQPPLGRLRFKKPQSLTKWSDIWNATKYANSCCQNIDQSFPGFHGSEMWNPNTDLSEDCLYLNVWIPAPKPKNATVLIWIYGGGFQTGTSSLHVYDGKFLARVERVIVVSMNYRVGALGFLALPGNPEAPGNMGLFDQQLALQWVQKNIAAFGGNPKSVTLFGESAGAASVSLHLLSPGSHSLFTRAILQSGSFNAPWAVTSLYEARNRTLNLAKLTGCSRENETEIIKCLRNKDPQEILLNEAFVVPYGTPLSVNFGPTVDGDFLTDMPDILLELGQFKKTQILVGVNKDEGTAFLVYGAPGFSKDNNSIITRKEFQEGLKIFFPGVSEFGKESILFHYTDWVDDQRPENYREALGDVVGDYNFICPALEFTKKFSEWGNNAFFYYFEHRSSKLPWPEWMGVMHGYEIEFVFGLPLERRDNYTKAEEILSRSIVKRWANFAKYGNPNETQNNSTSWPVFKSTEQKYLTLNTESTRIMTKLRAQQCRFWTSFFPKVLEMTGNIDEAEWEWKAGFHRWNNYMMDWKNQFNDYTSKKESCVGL

Structure (SMILES)	IC50 [1] [µM]	inhibition at 3 µM (hGluN1/hGluN2B [2]) [%]	IC50 [3] [µM]	RI (%) at 3 μM (hGluN1/hGluN2A [4]) [%]	inhibition at 3 µM (hGluN1/hGluN2A [5]) [%]	RI (%) at 3 μM (hGluN1/hGluN2B [6]) [%]
CNC1c2ccccc2CCc2ccccc21 [3a, N-methyl-10,11-dihydro-5H-dibenzo[a,d][7]annulen-5-amine hydrochloride]	> 100	71 ± 1.75	> 100	82.34 ± 3.25	–	–
CCNC1c2ccccc2CCc2ccccc21 [3b, N-ethyl-10,11-dihydro-5H-dibenzo[a,d][7]annulen-5-amine hydrochloride]	> 100	51.8 ± 3.39	> 100	–	34 ± 4.6	–
CC(C)NC1c2ccccc2CCc2ccccc21 [3c, N-isopropyl-10,11-dihydro-5H-dibenzo[a,d][7]annulen-5-amine hydrochloride]	> 100	76.9 ± 3.57	> 100	–	52.2 ± 5.23	–
c1ccc2c(c1)CCc1ccccc1C2NC1CC1 [3d, N-cyclopropyl-10,11-dihydro-5H-dibenzo[a,d][7]annulen-5-amine hydrochloride]	> 100	53.6 ± 3.16	> 100	–	40.1 ± 3.42	–
CCCCNC1c2ccccc2CCc2ccccc21 [3e, N-butyl-10,11-dihydro-5H-dibenzo[a,d][7]annulen-5-amine hydrochloride]	> 100	85.8 ± 2.19	> 100	–	76.4 ± 4.03	–
CC(C)CNC1c2ccccc2CCc2ccccc21 [3f, N-isobutyl-10,11-dihydro-5H-dibenzo[a,d][7]annulen-5-amine hydrochloride]	> 100	–	> 100	–	76.8 ± 2.99	91.62 ± 0.99
c1ccc2c(c1)CCc1ccccc1C2NC1CCCCC1 [3g, N-cyclohexyl-10,11-dihydro-5H-dibenzo[a,d][7]annulen-5-amine hydrochloride]	14.4 ± 1.3	–	–	–	79.4 ± 2.06	85.95 ± 3.13
c1ccc2c(c1)CCc1ccccc1C2N1CCCCC1 [3h, 1-(10,11-dihydro-5H-dibenzo[a,d][7]annulen-5-yl)piperidine hydrochloride]	> 100	5.2 ± 1.56	> 100	–	5.4 ± 1.39	–
c1ccc2c(c1)CCc1ccccc1C2N1CCOCC1 [3i, 4-(10,11-dihydro-5H-dibenzo[a,d][7]annulen-5-yl)morpholine hydrochloride]	> 100	3.43 ± 1.33	> 100	–	6.78 ± 1.67	–
COCCNC1c2ccccc2CCc2ccccc21 [3j, N-(2-methoxyethyl)-10,11-dihydro-5H-dibenzo[a,d][7]annulen-5-amine hydrochloride]	> 100	66.6 ± 3.9	> 100	–	34.9 ± 4.8	–
c1ccc2c(c1)CCc1ccccc1C2N1CCCC1 [3k, 1-(10,11-dihydro-5H-dibenzo[a,d][7]annulen-5-yl)pyrrolidine hydrochloride]	> 100	62.1 ± 3.44	> 100	–	49.8 ± 3.27	–
CN1CCN(C2c3ccccc3CCc3ccccc32)CC1 [3m, 1-(10,11-dihydro-5H-dibenzo[a,d][7]annulen-5-yl)-4-methylpiperazine dihydrochloride]	> 100	9.49 ± 2.17	> 100	–	9.7 ± 2.41	–
CCN(CC)C1c2ccccc2CCc2ccccc21 [3n, N,N-diethyl-10,11-dihydro-5H-dibenzo[a,d][7]annulen-5-amine hydrochloride]	> 100	75 ± 3.14	> 100	–	68.4 ± 4.84	–
CCN1CCN(C2c3ccccc3CCc3ccccc32)CC1 [3o, 1-(10,11-dihydro-5H-dibenzo[a,d][7]annulen-5-yl)-4-ethylpiperazine dihydrochloride]	> 100	5.22 ± 1.49	> 100	–	7.64 ± 0.84	–
CNC1c2ccccc2C=Cc2ccccc21 [6a, N-methyl-5H-dibenzo[a,d][7]annulen-5-amine hydrochloride]	> 100	68.9 ± 3.57	> 100	–	54.3 ± 3.11	–
CCNC1c2ccccc2C=Cc2ccccc21 [6b, N-ethyl-5H-dibenzo[a,d][7]annulen-5-amine hydrochloride]	> 100	59.9 ± 3.15	> 100	–	39.9 ± 4.78	–
CC(C)NC1c2ccccc2C=Cc2ccccc21 [6c, N-isopropyl-5H-dibenzo[a,d][7]annulen-5-amine hydrochloride]	> 100	76 ± 2.22	> 100	–	75.6 ± 2.36	–
C1=Cc2ccccc2C(NC2CC2)c2ccccc21 [6d, N-cyclopropyl-5H-dibenzo[a,d][7]annulen-5-amine hydrochloride]	> 100	57.2 ± 3.27	> 100	–	45 ± 3.55	–
CCCCNC1c2ccccc2C=Cc2ccccc21 [6e, N-butyl-5H-dibenzo[a,d][7]annulen-5-amine hydrochloride]	> 100	79.2 ± 2.84	> 100	–	81.1 ± 2.62	–
C1=Cc2ccccc2C(NC2CCCCC2)c2ccccc21 [6g, N-cyclohexyl-5H-dibenzo[a,d][7]annulen-5-amine hydrochloride]	8.5 ± 0.4	–	–	92.12 ± 1.48	–	92.37 ± 1.82
C1=Cc2ccccc2C(N2CCOCC2)c2ccccc21 [6i, 4-(5H-dibenzo[a,d][7]annulen-5-yl)morpholine hydrochloride]	> 100	57.6 ± 3.47	> 100	–	31.9 ± 4.16	–
COCCNC1c2ccccc2C=Cc2ccccc21 [6j, N-(2-methoxyethyl)-5H-dibenzo[a,d][7]annulen-5-amine hydrochloride]	> 100	60 ± 4.39	> 100	–	35.6 ± 1.09	–
C1=Cc2ccccc2C(N2CCCC2)c2ccccc21 [6k, 1-(5H-dibenzo[a,d][7]annulen-5-yl)pyrrolidine hydrochloride]	> 100	85.53 ± 0.21	> 100	–	48.6 ± 2.99	–
OCCNC1c2ccccc2C=Cc2ccccc21 [6l, 2-((5H-dibenzo[a,d][7]annulen-5-yl)amino)ethanol hydrochloride]	> 100	48.8 ± 4.13	> 100	–	38.2 ± 3.8	–
